In patent US12018033B2, “Inhibitors of protein arginine deiminases” (Forward Therapeutics, Inc., priority 2018, dated 2024):
pIC50: −log10 of the molar value.

Biological target: T1, Recombinant human PAD4 (2-663) (Homo sapiens, UniProt Q9UM07)
T1 construct: Recombinant human PAD4 (2-663) was expressed in E. coli; made in house; host or cells: E. coli
Assay: PAD4 Inhibition Assay
Assay type: biochemical
Settings: 60 mins pre-incubation at RT; substrate BAEE with CaCl2; fluorescent signal (λex 405/λem 460)
Experimental: Protein: Recombinant human PAD4 (2-663) was expressed in E. coli as an N-terminal Strep-tag and C-terminal 6-his tag fusion protein. Protein was purified using Strep-tactin resin followed by size exclusion chromatography. Tags were not removed during purification. Activity of the protein was determined using ammonia quantification assay.
PAD4 enzyme (10 μL) was diluted to concentration of 75 nM in assay buffer A (100 mM HEPES, pH 8, 50 mM NaCl, 2 mM DTT, 0.6 mg/mL BSA and 0.5% DMSO) and added to wells containing 10 μL of various concentrations of test compound, or DMSO vehicle in buffer A with 1.5% final DMSO concentration in a Corning high volume 384 well black plate. Following 60 mins pre-incubation at RT with gentle shaking, the reaction was initiated by the addition of 10 μL of substrate buffer containing 3 mM N-α-benzoyl-L-arginine ethyl ester (BAEE) and 600 μM CaCl2) in assay buffer A. The reaction was stopped after 60 mins with the addition of 15 μL stop/detection buffer containing 7.5 mM phthalaldehyde, 50 mM EDTA and 7.5 mM DTT in assay buffer A. Quenched reactions were incubated at RT for 45 mins before measuring fluorescent signal (λex 405/λem 460) on an Envision plate reader (Perkin Elmer Life Sciences, Waltham, Mass., USA).

T1 sequence (Q9UM07 2-663): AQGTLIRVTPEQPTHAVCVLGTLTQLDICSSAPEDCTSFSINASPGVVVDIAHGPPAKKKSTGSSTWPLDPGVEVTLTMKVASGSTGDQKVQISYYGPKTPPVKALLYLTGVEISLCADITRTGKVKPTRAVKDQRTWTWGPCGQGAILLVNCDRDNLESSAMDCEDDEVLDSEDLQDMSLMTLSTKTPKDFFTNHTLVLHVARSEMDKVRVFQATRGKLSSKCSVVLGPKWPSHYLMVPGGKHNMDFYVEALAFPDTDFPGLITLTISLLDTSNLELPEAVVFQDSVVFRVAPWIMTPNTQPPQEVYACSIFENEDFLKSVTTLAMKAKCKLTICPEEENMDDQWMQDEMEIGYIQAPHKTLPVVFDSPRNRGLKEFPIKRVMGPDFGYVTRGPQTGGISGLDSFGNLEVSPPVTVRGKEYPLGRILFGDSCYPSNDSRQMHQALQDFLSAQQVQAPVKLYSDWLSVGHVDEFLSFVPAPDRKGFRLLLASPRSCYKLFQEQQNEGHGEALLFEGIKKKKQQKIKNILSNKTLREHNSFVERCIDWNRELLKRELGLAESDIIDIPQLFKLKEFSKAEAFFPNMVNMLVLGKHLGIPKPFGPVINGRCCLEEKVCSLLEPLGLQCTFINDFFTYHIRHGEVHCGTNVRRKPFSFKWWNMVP

Compound | pIC50
N[C@@H]1CCN(C(=O)c2cc3cc(Cl)c(F)c(F)c3[nH]2)C1 [Example 1, (R)-(3-Aminopyrrolidin-1-yl)(5-chloro-6,7-difluoro-1H-indol-2-yl)methanone] | ≥ 6.00
N[C@@H]1CCN(C(=O)c2cc3cc(Cl)cc(F)c3[nH]2)C1 [Example 2, (R)-(3-Aminopyrrolidin-1-yl)(5-chloro-7-fluoro-1H-indol-2-yl)methanone] | ≥ 6.00
N[C@@H]1CCN(C(=O)c2cc3cc(F)c(F)c(F)c3[nH]2)C1 [Example 3, (R)-(3-Aminopyrrolidin-1-yl)(5,6,7-trifluoro-1H-indol-2-yl)methanone] | 5.00 to 6.00
N[C@@H]1CCN(C(=O)c2cc3cc(F)c(Cl)c(F)c3[nH]2)C1 [Example 4, (R)-(3-Aminopyrrolidin-1-yl)(6-chloro-5,7-difluoro-1H-indol-2-yl)methanone] | 5.00 to 6.00
N[C@@H]1CCN(C(=O)c2cc3cc(Br)c(F)c(F)c3[nH]2)C1 [Example 5, (R)-(3-Aminopyrrolidin-1-yl)(5-bromo-6,7-difluoro-1H-indol-2-yl)methanone] | ≥ 6.00
N[C@@H]1CCN(C(=O)c2cc3cc(F)c(Br)c(F)c3[nH]2)C1 [Example 6, (R)-(3-Aminopyrrolidin-1-yl)(6-bromo-5,7-difluoro-1H-indol-2-yl)methanone] | 4.00 to 5.00
N[C@H]1CN(C(=O)c2cc3cc(Cl)c(F)c(F)c3[nH]2)C[C@H]1F [Example 7, ((3S,4R)-3-Amino-4-fluoro-pyrrolidin-1-yl)-(5-chloro-6,7-difluoro-1H-indol-2-yl)-methanone] | 4.00 to 5.00
N[C@@H]1CCN(C(=O)c2cc3cc(Cl)ccc3[nH]2)C1 [Example 8, (R)-(3-Aminopyrrolidin-1-yl)(5-chloro-1H-indol-2-yl)methanone] | 5.00 to 6.00
C[C@@H](CN)NC(=O)c1cc2cc(Cl)c(F)c(F)c2[nH]1 [Example 9, (S)-N-(1-Aminopropan-2-yl)-5-chloro-6,7-difluoro-1H-indole-2-carboxamide] | ≥ 6.00
CC[C@@H](CN)NC(=O)c1cc2cc(Cl)c(F)c(F)c2[nH]1 [Example 10, (S)-N-(1-Aminobutan-2-yl)-5-chloro-6,7-difluoro-1H-indole-2-carboxamide] | 5.00 to 6.00
NCC(NC(=O)c1cc2cc(Cl)c(F)c(F)c2[nH]1)C1CC1 (stereo not drawn) [Example 11, N-(2-Amino-1-cyclopropylethyl)-5-chloro-6,7-difluoro-1H-indole-2-carboxamide] | 4.00 to 5.00
NCC1(NC(=O)c2cc3cc(Cl)c(F)c(F)c3[nH]2)COC1 [Example 12, N-(3-(Aminomethyl)oxetan-3-yl)-5-chloro-6,7-difluoro-1H-indole-2-carboxamide] | 4.00 to 5.00
C[C@@H]1CNC[C@H]1NC(=O)c1cc2cc(Cl)c(F)c(F)c2[nH]1 [Example 13, 5-Chloro-6,7-difluoro-N-((3S,4R)-4-methylpyrrolidin-3-yl)-1H-indole-2-carboxamide] | 5.00 to 6.00
C[C@H]1CNC[C@H]1NC(=O)c1cc2cc(Cl)c(F)c(F)c2[nH]1 [Example 14, 5-Chloro-6,7-difluoro-N-((3S,4S)-4-methylpyrrolidin-3-yl)-1H-indole-2-carboxamide] | ≥ 6.00
O=C(N[C@@H]1CNC[C@H]1O)c1cc2cc(Cl)c(F)c(F)c2[nH]1 [Example 15, 5-Chloro-6,7-difluoro-N-((3R,4R)-4-hydroxypyrrolidin-3-yl)-1H-indole-2-carboxamide] | 5.00 to 6.00
O=C(N[C@@H]1CNC[C@@H]1O)c1cc2cc(Cl)c(F)c(F)c2[nH]1 [Example 16, 5-Chloro-6,7-difluoro-N-((3R,4S)-4-hydroxypyrrolidin-3-yl)-1H-indole-2-carboxamide] | 5.00 to 6.00
O=C(N[C@H]1CNC[C@H]1O)c1cc2cc(Cl)c(F)c(F)c2[nH]1 [Example 17, 5-Chloro-6,7-difluoro-N-((3S,4R)-4-hydroxypyrrolidin-3-yl)-1H-indole-2-carboxamide] | 4.00 to 5.00
O=C(N[C@H]1CNC[C@@H]1O)c1cc2cc(Cl)c(F)c(F)c2[nH]1 [Example 18, 5-Chloro-6,7-difluoro-N-((3S,4S)-4-hydroxypyrrolidin-3-yl)-1H-indole-2-carboxamide] | 4.00 to 5.00
CC(C)C[C@@H](CN)NC(=O)c1cc2cc(Cl)c(F)c(F)c2[nH]1 [Example 19, (S)-N-(1-Amino-4-methylpentan-2-yl)-5-chloro-6,7-difluoro-1H-indole-2-carboxamide] | 4.00 to 5.00
C[C@@H]1CNC[C@@H]1NC(=O)c1cc2cc(Cl)c(F)c(F)c2[nH]1 [Example 20, 5-Chloro-6,7-difluoro-N-((3R,4R)-4-methylpyrrolidin-3-yl)-1H-indole-2-carboxamide] | ≥ 6.00

Compound | pIC50
C[C@H](CN)NC(=O)c1cc2cc(Cl)c(F)c(F)c2[nH]1 [Example 21, (R)-N-(1-Aminopropan-2-yl)-5-chloro-6,7-difluoro-1H-indole-2-carboxamide] | 4.00 to 5.00
N[C@H]1CN(C(=O)c2cc3cc(Cl)c(F)c(F)c3[nH]2)C[C@@H]1O [Example 22, ((3S,4S)-3-Amino-4-hydroxypyrrolidin-1-yl)(5-chloro-6,7-difluoro-1H-indol-2-yl)methanone] | ≥ 6.00
O=C(NC1CNC1)c1cc2cc(Cl)c(F)c(F)c2[nH]1 [Example 23, N-(Azetidin-3-yl)-5-chloro-6,7-difluoro-1H-indole-2-carboxamide] | ≥ 6.00
NC1CN(C(=O)c2cc3cc(Cl)c(F)c(F)c3[nH]2)C1 [Example 24, (3-Aminoazetidin-1-yl)(5-chloro-6,7-difluoro-1H-indol-2-yl)methanone] | 5.00 to 6.00
O=C(N[C@@H]1CCNC1)c1cc2cc(Cl)c(F)c(F)c2[nH]1 [Example 25, (R)-5-Chloro-6,7-difluoro-N-(pyrrolidin-3-yl)-1H-indole-2-carboxamide] | 4.00 to 5.00
O=C(N[C@H]1CCNC1)c1cc2cc(Cl)c(F)c(F)c2[nH]1 [Example 26, (S)-5-Chloro-6,7-difluoro-N-(pyrrolidin-3-yl)-1H-indole-2-carboxamide] | 5.00 to 6.00
N[C@H]1CCN(C(=O)c2cc3cc(Cl)c(F)c(F)c3[nH]2)C1 [Example 27, (S)-(3-Aminopyrrolidin-1-yl)(5-chloro-6,7-difluoro-1H-indol-2-yl)methanone] | ≥ 6.00
CC(C)(C)[C@@H](CN)NC(=O)c1cc2cc(Cl)c(F)c(F)c2[nH]1 [Example 28, (S)-N-(1-Amino-3,3-dimethylbutan-2-yl)-5-chloro-6,7-difluoro-1H-indole-2-carboxamide] | 4.00 to 5.00
N[C@H]1CN(C(=O)c2cc3cc(Cl)c(F)c(F)c3[nH]2)C[C@@H]1N [Example 29, (5-Chloro-6,7-difluoro-1H-indol-2-yl)((3S,4S)-3,4-diaminopyrrolidin-1-yl)methanone] | 5.00 to 6.00
N[C@H]1CNC[C@@H]1NC(=O)c1cc2cc(Cl)c(F)c(F)c2[nH]1 [Example 30, N-((3S,4S)-4-Aminopyrrolidin-3-yl)-5-chloro-6,7-difluoro-1H-indole-2-carboxamide] | 4.00 to 5.00
N[C@H]1CN(C(=O)c2cc3cc(Cl)c(F)c(F)c3[nH]2)C[C@H]1O [Example 32, ((3S,4R)-3-Amino-4-hydroxypyrrolidin-1-yl)(5-chloro-6,7-difluoro-1H-indol-2-yl)methanone] | 5.00 to 6.00
CO[C@H]1CNC[C@@H]1NC(=O)c1cc2cc(Cl)c(F)c(F)c2[nH]1 [Example 33, 5-Chloro-6,7-difluoro-N-((3S,4S)-4-methoxypyrrolidin-3-yl)-1H-indole-2-carboxamide] | 4.00 to 5.00
CO[C@@H]1CNC[C@H]1NC(=O)c1cc2cc(Cl)c(F)c(F)c2[nH]1 [Example 34, 5-Chloro-6,7-difluoro-N-((3R,4R)-4-methoxypyrrolidin-3-yl)-1H-indole-2-carboxamide] | 4.00 to 5.00
CO[C@H]1CN(C(=O)c2cc3cc(Cl)c(F)c(F)c3[nH]2)C[C@@H]1N [Example 35, ((3S,4S)-3-Amino-4-methoxypyrrolidin-1-yl)(5-chloro-6,7-difluoro-1H-indol-2-yl)methanone] | < 4.00
C[C@H]1CNC[C@@H]1NC(=O)c1cc2cc(Cl)c(F)c(F)c2[nH]1 [Example 36, 5-Chloro-6,7-difluoro-N-((3R,4S)-4-methylpyrrolidin-3-yl)-1H-indole-2-carboxamide] | 5.00 to 6.00
N[C@H]1CN(C(=O)c2cc3cc(Cl)c(F)c(F)c3[nH]2)C[C@@H]1F [Example 37, ((3S,4S)-3-Amino-4-fluoropyrrolidin-1-yl)(5-chloro-6,7-difluoro-1H-indol-2-yl)methanone] | 5.00 to 6.00
N[C@@H]1CCCN(C(=O)c2cc3cc(Cl)c(F)c(F)c3[nH]2)C1 [Example 38, (R)-(3-Aminopiperidin-1-yl)(5-chloro-6,7-difluoro-1H-indol-2-yl)methanone] | 4.00 to 5.00
O=C(N[C@H]1CCCNC1)c1cc2cc(Cl)c(F)c(F)c2[nH]1 [Example 39, (S)-5-Chloro-6,7-difluoro-N-(piperidin-3-yl)-1H-indole-2-carboxamide] | 4.00 to 5.00
O=C(N[C@@H]1CCCNC1)c1cc2cc(Cl)c(F)c(F)c2[nH]1 [Example 40, (R)-5-Chloro-6,7-difluoro-N-(piperidin-3-yl)-1H-indole-2-carboxamide] | 4.00 to 5.00
